Patent US20040185110A1, “Formulations of low solubility bioactive agents and processes for making the same” (priority 2002, published 2004)

Experiment: Solubility of Compound A
Type: physicochemical
Procedure: The present invention addresses the prior art issues of low bioavailability of certain drugs such as COX-2 selective inhibitors useful for the treatment of, for example, arthritis and rheumatic pain. […] Compound A, a COX-2 selective inhibitor, is a white to off-white odorless crystalline, anhydrous powder. At room temperature it is soluble in methylene chloride, and acetonitrile. […] The aqueous solubility of the drug is less than 2 µg/mL at 22 degrees Celsius at pH 6.2.

- solubility in methylene chloride, and acetonitrile (room temperature): soluble
- solubility in water (water): poorly soluble
Structure (SMILES): CS(=O)(=O)c1ccc(/C(=C2\CCOC2=O)c2ccc(Br)cc2)cc1 [Compound A, (Z)-3-[1-(4-bromophenyl)-1-(4-methylsulfonylphenyl)methylidine]-dihydrofuran-2-one]
